# Source: US20120251662A1, “ANTIMICROBIAL POWDERS FOR THE PREPARATION OF BAKERY PRODUCTS” (Caravan Ingredients Inc., priority 2011, published 2012)
# Test system: mold
# Test: Mold growth on white bread loaves (Dough Formulation A) coated with antimicrobial powders, Example 1
# Procedure: All of the ingredients except for the salt were added to a 20 qt Hobart mixer, and mixed with a spiral hook on the 1st speed setting (low) for two minutes. […] The salt was added, followed by mixing at the 2nd speed setting for an additional 3 minutes until full dough development. […] Next, a Gemini Straight Grain Moulder was used, according to the settings in Table 4 below, to sheet and mould the dough pieces. The shaped dough pieces were then evenly coated with 2 grams of various antimicrobial powders containing different antimicrobial agents, as described below, and then placed into 1-lb loaf pans. […] After baking, the loaves were removed from the oven and […]. The loaves were cooled on wire racks for 1 hour and then bagged in poly bags with twist ties. […] Each of the antimicrobial powders used above was prepared by adding the ingredients in the tables below to a 5 qt Hobart mixer and blending with a paddle attachment for 10 minutes.
row,Compound,Mold Inhibition
1,CCC(=O)[O-].CCC(=O)[O-].[Ca+2] [Calcium Propionate],Slightly Effective
2,O=C(O)/C=C/C(=O)O [Fumaric Acid],Slightly Effective
3,"C[C@@H]1C/C=C/C=C/C=C/C=C/[C@H](O[C@@H]2O[C@H](C)[C@@H](O)[C@H](N)[C@@H]2O)C[C@@H]2O[C@](O)(C[C@@H](O)C[C@H]3O[C@@H]3/C=C/C(=O)O1)C[C@H](O)[C@H]2C(=O)O [Natamycin, reference compound]",Effective
4,C/C=C/C=C/C(=O)[O-].[K+] [Potassium Sorbate],Effective
5,O=C([O-])c1ccccc1.[Na+] [Sodium Benzoate],Moderately Effective
6,CC(=O)O.CC(=O)[O-].[Na+] [Sodium Diacetate],Moderately Effective
7,CCC(=O)[O-].[Na+] [Sodium Propionate],Moderately Effective
8,C/C=C/C=C/C(=O)O [Sorbic Acid],Effective
9,Polylysine,Moderately Effective
